{"source": "patent US9060987B2", "about": "“Methods for treating gout flares” (CymaBay Therapeutics, Inc., priority 2011, dated 2015)", "key": {"[1]": {"test": "Plasma concentration of (−)-halofenic acid during and after 30-day daily oral 400 mg arhalofenate", "type": "in vivo, human", "experimental": "Methods used in relation to FIGS. 1-2 showing the pharmacokinetic profile of (−)-halofenic acid were as follows:\nPlasma proteins in human plasma samples containing of (−)-halofenic acid, an internal standard (I.S.) and heparin as the anticoagulant were precipitated with acetonitrile. The samples were vortex mixed, centrifuged and an aliquot was analyzed by reversed phase high performance liquid chromatography using a Phenomenex Polar RP column maintained at 45° C. The mobile phase was nebulized using heated nitrogen in a Z-spray source/interface and the ionized compounds were detected using a tandem quadrupole mass spectrometer.\nThe plasma concentrations were rounded to the nearest one-tenth μg/mL before the calculations. Plasma samples with concentrations below the quantifiable limit of 1.0 μg/mL (BQL) were assigned values of zero."}, "gout patients": {"test_system": "gout patients", "details": "monotherapy at 40, 80, 120, 160 and 240 mg/day; cited from earlier work"}, "murine 3T3-L1 adipocytes": {"test_system": "murine 3T3-L1 adipocytes", "test": "Suppression of uric-acid induced inflammation in vitro", "type": "cell-based", "details": "50-150 μM, uric acid 5 or 15 mg/dL, 3 or 7 days", "experimental": "Differentiated murine 3T3-L1 adipocytes are cultured in vitro in 24 well plates. To the culture medium (−)-halofenic acid is added at a final concentration of 50-150 μM prior to the addition of uric acid at 5 mg/dL or 15 mg/dL and the culture continued for 3 or 7 days. A parallel culture of cells is conducted in the presence of a vehicle such as dimethylsulfoxide (DMSO). At the end of the culture period media is removed, cells are isolated and messenger RNA prepared. The levels of secreted cytokines representing a panel of pro-inflammatory cytokines including but not restricted to monocyte chemoattractant protein-1 (MCP-1), tumor necrosis factor α (TNF-α), interleukin-1β, (IL-1β), interleukin-6 (IL-6) and interleukin-12 (Il-12) are determined in the media isolated from the cells using commercially available cytokine assay kits. The levels of gene expression for the mRNAs for a panel of pro-inflammatory cytokines including but not restricted to monocyte chemoattractant protein-1 (MCP-1), tumor necrosis factor α (TNF-α), interleukin-1β, (IL-1β), interleukin-6 (IL-6) and interleukin-12 (Il-12) are determined using real-time PCR. […] A similar study is also conducted in primary mouse macrophages and human umbilical vein endothelial cells."}, "[2]": {"test_system": "gout patients with hyperuricemia", "test": "Randomized, double-blind, placebo-controlled 4-week monotherapy trial: sUA reduction and flare prevention", "type": "in vivo, human", "details": "for Flares considered moderate in severity by the investigator / Patients who reported flare during the Treatment Phase / Patients with flare that required medication (additional colchicine and/or NSAIDs) / Mean duration of Flares Requiring Treatment / Mean duration of Total flares / Mean sUA absolute change from baseline (Day 1) / Mean sUA percent change from baseline (Day 1): 4 weeks; for Mean sUA absolute change from baseline (Day 1) / Mean sUA percent change from baseline (Day 1): PP population; for Mean sUA percent change from baseline (Day 1): colchicine 0.6 mg background", "experimental": "Study Design: This was a randomized, double-blind, placebo-controlled study of 400 mg and 600 mg arhalofenate administered daily for 4 weeks as monotherapy in patients with gout (per criteria of the American Rheumatism Association) with hyperuricemia. Patients using urate lowering therapy (ULT) must have been willing to discontinue treatment for the duration of the study. Patients with a recent history of an acute gout flare must have been symptom free for at least 1 week prior to screening. Upon successful completion of screening, patients entered into a minimum 3-week Run-in/Stabilization Phase. During this phase, patients on existing ULT were asked to temporarily discontinue their current therapy. Patients also started colchicine 0.6 mg once daily until the final study visit as prophylaxis to prevent potential gout flares. Patient who met final eligibility criteria were randomized (1:1:1) into the Treatment Phase to receive Placebo, arhalofenate 400 mg, or arhalofenate 600 mg. Each randomized patient took double-blind study medication daily for a period of four weeks beginning at Day 1 (Visit 3). Patients returned to the study site after 2 weeks at Visit 4 and then weekly at Visits 5 and 6 (Weeks 3 and 4). A Follow-up Visit (Visit 7) took place 2 weeks after the last dose of study medication. […] Patients with a recent history of an acute gout flare must have been symptom free for at least 1 week prior to both screening and randomization. Criteria for Evaluation: The primary efficacy analysis compared the percentage change in sUA from baseline to end of treatment between the treatment groups. In addition, gout flares were captured as special interest event and the incidence of gout flares (all flares and flares that required treatment), severity (as assessed either mild, moderate, or severe by the Principal Investigator), and duration (days) were compared between treatment groups."}, "healthy adult subjects": {"test_system": "healthy adult subjects", "test": "Phase 1 multiple-dose study, serum uric acid after once daily oral dosing for 10 days", "type": "in vivo, human", "details": "all dose levels tested, FIG. 3 and Table 1", "experimental": "Methods used in relation to FIG. 3 showing reduction in serum uric acid in subjects over time following once daily dosing with arhalofenate were as follows.\nA single centre Phase 1, placebo- and positive-controlled, double-blind, randomized, dose escalation study was conducted to evaluate the multiple-dose pharmacokinetics (PK) of (−)-halofenate administered as a daily dose orally for 10 days, at the protocol-specified doses in healthy adult subjects. A total of 119 subjects completed study treatment according to protocol: 6 subjects received (−)-halofenate 100 mg/day for 10 days; 6 subjects received (−)-halofenate 200 mg/day for 10 days; 9 subjects received (−)-halofenate 400 mg/day for 10 days; 20 subjects received (−)-halofenate 600 mg/day for 10 days; 10 subjects received (−)-halofenate 600 mg Enteric Coated (EC)/day for 10 days; 9 subjects received (−)-halofenate 800 mg EC/day for 10 days; 10 subjects received (−)-halofenate 1000 mg EC/day for 10 days; 24 subjects received placebo treatment daily for 10 days; and 25 subjects received naproxen 500 mg b.i.d. monotherapy for 7 days. In this study, serum uric acid was measured at screening and on Days 1, 3, 5, 7, 9, 14 and 21."}, "[3]": {"test_system": "gout patients with hyperuricemia", "test": "Open-label trial of arhalofenate in combination with febuxostat vs febuxostat alone: sUA reduction and flare prevention", "type": "in vivo, human", "experimental": "Study Design: This was an open-label study to determine the sUA reduction and flare prevention with arhalofenate in combination with febuxostat and compared that with febuxostat alone in gout patients (per criteria of the American Rheumatism Association) with hyperuricemia when arhalofenate administered at 400 mg once daily orally for 2 weeks (Weeks 2-3) and then increased to 600 mg once daily orally for an additional 2 weeks (Weeks 4-5) in addition to 80 mg febuxostat once daily orally (Weeks 1-5). Patients with a recent history of an acute gout flare must have been symptom free for at least 1 week prior to screening.\nAll patients who met the screening criteria started a 2-week Run-in/Stabilization Phase at the same time as out-patient basis. During this phase, patients on existing urate lowering therapy were asked to discontinue their current therapy for the duration of the study. At the same time, patients also started colchicine 0.6 mg once daily as prophylaxis to prevent potential gout flares. Upon completing the Run-in/Stabilization Phase, patients were reassessed at Day −2 (Visit 2) to confirm the final eligibility for the Treatment Phase. The sUA at this visit must have been ≧8.0 mg/dL and ≦10 mg/dL to qualify for the Treatment Phase. In addition, all safety lab values must have met the eligibility criteria at this visit. Patients successfully meeting the eligibility criteria entered the study site for an in-clinic stay for a total of 37 consecutive days.\nThe Treatment Phase began on Day 1 and continued for 5 weeks until Day 35. The Treatment Phase consisted of 3 sequential drug dosing periods:\n80 mg febuxostat orally once daily from Days 1 through 7 (Febuxostat Period).\n80 mg febuxostat plus 400 mg arhalofenate orally once daily from Days 8 through 21 (Febuxostat plus 400 mg arhalofenate Period).\n80 mg febuxostat plus 600 mg arhalofenate orally once daily from Days 22 through 35 (Febuxostat plus 600 mg arhalofenate Period).\nIn addition, all patients continued to receive 0.6 mg colchicine daily for gout flare prophylaxis.\nEfficacy of febuxostat plus arhalofenate combination treatment was assessed by the proportion of patients achieving a sUA<6 mg/dL, <5 mg/dL, <4 mg/dL, and <3 mg/dL at Day 22 and Day 36. In addition, absolute and percent changes in sUA at Day 22 and Day 36 from baseline (Day 1) were also evaluated. Gout flares were captured as special interest event in this study. The incidence of gout flares, severity (as assessed either mild, moderate, or severe by the Principal Investigator), and duration (days) were compared between treatment periods."}, "[4]": {"details": "Day 8, after one week of daily 80 mg febuxostat"}}}
{"smiles": "O=C(O)C(Oc1cccc(C(F)(F)F)c1)c1ccc(Cl)cc1", "note": "(single isomer, unassigned; (-)) [(−)-halofenic acid, (−)-4-chlorophenyl-(3-trifluoromethylphenoxy)acetic acid]", "values": [{"measurement": "Half-life of (−)-halofenic acid in plasma", "setting": "[1]; daily oral 400 mg arhalofenate for 30 days, FIGS. 1-2", "value": "a long half-life with sustained drug levels present for several days after the final dose"}, {"measurement": "Intraday plasma concentration profile", "setting": "[1]; daily oral 400 mg arhalofenate, Day 15 and Day 30, FIG. 2", "value": "a relatively constant intraday plasma concentration"}]}
{"smiles": "O=c1[nH]cnc2c(CN3C[C@H](CO)[C@@H](O)C3)c[nH]c12", "note": "[Ulodesine, 7-(((3R,4R)-3-hydroxy-4-(hydroxymethyl)pyrrolidin-1-yl)methyl)-3H-pyrrolo[3,2-d]pyrimidin-4(5H)-one]", "values": [{"measurement": "Serum uric acid in gout patients", "setting": "gout patients", "value": "rapidly and significantly reduced serum uric acid"}]}
{"smiles": "CC(=O)NCCOC(=O)[C@H](Oc1cccc(C(F)(F)F)c1)c1ccc(Cl)cc1", "note": "[arhalofenate, (−)-(R)-(4-chloro-phenyl)-(3-trifluoromethyl-phenoxy)-acetic acid 2-acetylamino-ethyl ester]", "values": [{"measurement": "Uptake of uric acid into 3T3-L1 adipocytes", "setting": "murine 3T3-L1 adipocytes", "value": "prevents the uptake of uric acid into 3T3-L1 adipocytes"}, {"measurement": "Uric acid induced inflammatory response (expression and secretion of pro-inflammatory cytokines)", "setting": "murine 3T3-L1 adipocytes", "value": "suppresses the uric acid induced inflammatory response"}, {"measurement": "Flares considered moderate in severity by the investigator", "setting": "[2]; 400 mg daily", "value": "2 of 4"}, {"measurement": "Patients who reported flare during the Treatment Phase", "setting": "[2]; 400 mg daily, FIG. 4", "value": 19.0, "unit": "%"}, {"measurement": "Patients with flare that required medication (additional colchicine and/or NSAIDs)", "setting": "[2]; 400 mg daily, FIG. 4", "value": 4.8, "unit": "%"}, {"measurement": "Mean duration of Flares Requiring Treatment", "setting": "[2]; 400 mg daily, FIG. 5", "value": 2.0, "unit": "days"}, {"measurement": "Mean duration of Total flares", "setting": "[2]; 400 mg daily, FIG. 5", "value": 1.3, "unit": "days"}, {"measurement": "Mean sUA absolute change from baseline (Day 1)", "setting": "[2]; 400 mg daily", "value": -1.4, "unit": "mg/dL"}, {"measurement": "Mean sUA percent change from baseline (Day 1)", "setting": "[2]; 400 mg daily", "value": "−15.4", "unit": "%"}, {"measurement": "Flares considered moderate in severity by the investigator", "setting": "[2]; 600 mg daily", "value": "0 of 2"}, {"measurement": "Patients who reported flare during the Treatment Phase", "setting": "[2]; 600 mg daily, FIG. 4", "value": 4.3, "unit": "%"}, {"measurement": "Patients with flare that required medication (additional colchicine and/or NSAIDs)", "setting": "[2]; 600 mg daily, FIG. 4", "value": 4.3, "unit": "%"}, {"measurement": "Mean duration of Flares Requiring Treatment", "setting": "[2]; 600 mg daily, FIG. 5", "value": 1.0, "unit": "days"}, {"measurement": "Mean duration of Total flares", "setting": "[2]; 600 mg daily, FIG. 5", "value": 1.0, "unit": "days"}, {"measurement": "Mean sUA absolute change from baseline (Day 1)", "setting": "[2]; 600 mg daily", "value": -2.3, "unit": "mg/dL"}, {"measurement": "Mean sUA percent change from baseline (Day 1)", "setting": "[2]; 600 mg daily", "value": "−23", "unit": "%"}, {"measurement": "Incidence of any flares (Total flare) and flares requiring treatment compared to placebo", "setting": "[2]; monotherapy, FIG. 4", "value": "dose dependently reduced the incidence of any flares (Total flare) and flares requiring treatment compared to placebo"}, {"measurement": "Duration of all flares (any flares and flares requiring treatment)", "setting": "[2]; monotherapy, FIG. 5", "value": "also reduced the duration of all flares"}, {"measurement": "Reduction in serum uric acid over time", "setting": "healthy adult subjects", "value": "gradual reduction in serum uric acid over a period of time at all dose levels tested, and in a dose dependent manner"}]}
{"smiles": "Cc1nc(-c2ccc(OCC(C)C)c(C#N)c2)sc1C(=O)O", "note": "[febuxostat, 2-(3-cyano-4-isobutoxyphenyl)-4-methyl-1,3-thiazole-5-carboxylic acid]", "values": [{"measurement": "Patients who experienced gout flares", "setting": "[3]; 1 week of febuxostat only period (80 mg), colchicine 0.6 mg background", "value": 2, "unit": "patients"}, {"measurement": "Patients who reached sUA <4 mg/dL", "setting": "[3]; [4]", "value": 9, "unit": "%"}, {"measurement": "Patients who reached sUA <5 mg/dL", "setting": "[3]; [4]", "value": 55, "unit": "%"}, {"measurement": "Patients who reached sUA target of <6 mg/dL", "setting": "[3]; [4]", "value": 100, "unit": "%"}, {"measurement": "Patients who reported flare, adjusted by duration of treatment", "setting": "[3]; febuxostat only period, FIG. 6", "value": 18.2, "unit": "% patients/week"}, {"measurement": "Mean duration of the gout flares", "setting": "[3]; febuxostat only period, FIG. 7", "value": 6.5, "unit": "days"}]}
